Experimental data reported in patent US9695155B2, “Herbicidal substituted pyrimidinyloxy benzene compounds” (E. I. DU PONT DE NEMOURS AND COMPANY, priority 2013, dated 2017).

What was measured:
[1] = system: large (Lg) crabgrass; test: Test A preemergence; type: in vivo, Digitaria sanguinalis; conditions: for Crabgrass, Large plant response rating: 500 g ai/ha
In short: (§1)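 Compounds in non-phytotoxic solvent with surfactant applied as soil spray preemergence, or postemergence to plants 2-10 cm at one- to two-leaf stage, in loam/sand. After approximately 10 days in greenhouse, injury rated visually versus untreated controls, 0 (no effect) to 100 (complete control).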

[2] = system: giant foxtail; test: Test A preemergence; type: in vivo, Setaria faberii; conditions: for Plant response rating, Foxtail, Giant / Foxtail, Giant plant response rating: 0 to 100 scale where 0 is no effect and 100 is complete control; for Foxtail, Giant plant response rating: 500 g ai/ha
In short: as §1

[3] = system: morningglory; test: Test A preemergence; type: in vivo, Ipomoea spp.; conditions: for Morningglory plant response rating (0 to 100 scale): 125 g ai/ha; for Morningglory plant response rating: 500 g ai/ha, 0 to 100 scale where 0 is no effect and 100 is complete control
In short: as §1

[4] = system: wheat; test: Test A preemergence; type: in vivo, Triticum aestivum; conditions: for Wheat plant response rating (0 to 100 scale): 125 g ai/ha; for Wheat plant response rating: 500 g ai/ha, 0 to 100 scale where 0 is no effect and 100 is complete control
In short: as §1

[5] = system: large (Lg) crabgrass; test: Test A postemergence; type: in vivo, Digitaria sanguinalis
In short: as §1

[6] = system: giant foxtail; test: Test A postemergence; type: in vivo, Setaria faberii
In short: as §1

[7] = system: velvetleaf; test: Test A postemergence; type: in vivo, Abutilon theophrasti
In short: as §1

[8] = system: corn; test: Test A postemergence; type: in vivo, Zea mays
In short: as §1

[9] = system: rice; test: Test B flooded paddy test; type: in vivo, Oryza sativa; conditions: Flood, 250 g ai/ha; 0 to 100 scale where 0 is no effect and 100 is complete control
In short: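 Compound added straight to paddy water, with pots kept flooded 3 cm above soil, on plants grown to the 2-leaf stage. Visual scoring 0-100 (100 = complete control) against untreated controls after 13 to 15 greenhouse days.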

[10] = 125 g ai/ha, 0 to 100 scale where 0 is no effect and 100 is complete control
[11] = 0 to 100 scale where 0 is no effect and 100 is complete control
[12] = 500 g ai/ha, 0 to 100 scale where 0 is no effect and 100 is complete control
[13] = 125 g ai/ha, 0 to 100 scale, 0 no effect, 100 complete control

| Structure (SMILES) | Crabgrass, Large plant response rating [1, 11] | Plant response rating, Foxtail, Giant ([2]; 125 g ai/ha) | Foxtail, Giant plant response rating [2] | Morningglory plant response rating (0 to 100 scale) [3] | Morningglory plant response rating [3] | Wheat plant response rating (0 to 100 scale) [4] | Wheat plant response rating [4] | Plant response rating, Crabgrass, Large [5, 12] | Foxtail, Giant plant response rating [6, 10] | Plant response rating, Foxtail, Giant [6, 12] | Plant response rating, Velvetleaf [7, 12] | Corn plant response rating [8, 10] | Plant response rating, Corn [8, 12] | Plant response rating, Rice [9] | further results |
| --- | --- | --- | --- | --- | --- | --- | --- | --- | --- | --- | --- | --- | --- | --- | --- |
| FC(F)c1cccc(Oc2ncc(Cl)cn2)c1-n1cc(C(F)(F)F)cn1 [Compound 170] | 100 | 100 | 90 | 20 | 90 | 20 | 20 | 90 | 70 | 90 | 100 | 80 | 90 | 50 | Plant response rating, Crabgrass, Large [1, 10]: 100; Crabgrass, Large plant response rating [5, 10]: 70; Velvetleaf plant response rating [7, 10]: 70 |
| N#Cc1cnn(-c2c(C#N)cccc2Oc2ncc(Br)cn2)c1 [Compound 135] | – | 70 | 100 | – | – | – | – | – | 70 | 100 | – | 10 | 80 | 0 | – |
| NC(=S)c1cccc(Oc2ncc(Cl)cn2)c1-n1cc(Cl)cn1 [Compound 292] | 100 | – | 100 | 30 | 90 | 10 | 30 | 90 | – | 90 | 100 | – | 80 | 20 | Crabgrass, Large plant response rating (0 to 100 scale) ([1]; 125 g ai/ha): 100; Foxtail, Giant plant response rating (0 to 100 scale) ([2]; 125 g ai/ha): 100; Plant response rating, Crabgrass, Large [5, 13]: 60; Plant response rating, Foxtail, Giant [6, 13]: 70; Plant response rating, Velvetleaf [7, 13]: 70; Plant response rating, Corn [8, 13]: 50 |
